{"source": "ChEMBL document CHEMBL1151506", "about": "“Carboxyl-promoted enhancement of selectivity for the 3 adrenergic receptor. Negative charge of the sulfonic acid BMS-187413 introduces-3 binding selectivity” (Bioorg Med Chem Lett, 1997)", "key": {"[1]": {"biological_target": "T1, Beta-3 adrenergic receptor (Homo sapiens, UniProt P13945)", "assay": "Effective concentration for stimulation of adenylyl cyclase activity in CHO-beta3 AR expressing cell membranes", "type": "functional"}, "[2]": {"biological_target": "T1, Beta-3 adrenergic receptor", "assay": "Intrinsic activity as maximal cyclase activity in CHO-beta3 AR cell membranes compared to (-)-isoproterenol", "type": "functional, cell-based"}, "[3]": {"biological_target": "T1, Beta-3 adrenergic receptor", "assay": "Ability to bind to human Beta-3 adrenergic receptor using membranes of stably transfected CHO cells", "type": "cell-based"}, "[4]": {"biological_target": "Beta-2 adrenergic receptor (Homo sapiens, UniProt P07550)", "sequence (P07550 whole entry)": "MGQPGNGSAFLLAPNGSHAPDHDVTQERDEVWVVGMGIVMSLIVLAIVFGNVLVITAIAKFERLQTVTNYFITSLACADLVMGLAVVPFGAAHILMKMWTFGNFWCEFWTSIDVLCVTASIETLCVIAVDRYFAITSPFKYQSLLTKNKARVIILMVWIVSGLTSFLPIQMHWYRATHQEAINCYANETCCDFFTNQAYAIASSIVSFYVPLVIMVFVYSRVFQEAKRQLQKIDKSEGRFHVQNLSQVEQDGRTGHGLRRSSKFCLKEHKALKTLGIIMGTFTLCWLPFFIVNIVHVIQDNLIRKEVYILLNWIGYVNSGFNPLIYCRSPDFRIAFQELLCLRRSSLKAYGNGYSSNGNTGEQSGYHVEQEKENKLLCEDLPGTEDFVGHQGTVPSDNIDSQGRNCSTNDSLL", "assay": "Ability to bind to human Beta-2 adrenergic receptor using membranes of stably transfected CHO cells", "type": "cell-based"}, "[5]": {"biological_target": "Beta-1 adrenergic receptor (Homo sapiens, UniProt P08588)", "sequence (P08588 whole entry)": "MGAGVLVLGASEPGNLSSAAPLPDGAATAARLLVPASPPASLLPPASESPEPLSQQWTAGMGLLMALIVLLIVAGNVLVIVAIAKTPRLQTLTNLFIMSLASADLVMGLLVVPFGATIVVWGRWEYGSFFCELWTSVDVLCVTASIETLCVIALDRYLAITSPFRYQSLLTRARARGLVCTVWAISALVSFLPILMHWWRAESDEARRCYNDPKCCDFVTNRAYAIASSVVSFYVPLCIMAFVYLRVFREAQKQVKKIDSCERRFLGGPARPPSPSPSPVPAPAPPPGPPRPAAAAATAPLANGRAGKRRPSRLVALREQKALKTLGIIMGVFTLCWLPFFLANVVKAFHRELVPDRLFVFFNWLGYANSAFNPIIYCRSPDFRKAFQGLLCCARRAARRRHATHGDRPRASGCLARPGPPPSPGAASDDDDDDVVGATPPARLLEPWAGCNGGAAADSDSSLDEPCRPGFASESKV", "assay": "Ability to bind to human Beta-1 adrenergic receptor using membranes of stably transfected CHO cells", "type": "cell-based"}, "[6]": {"biological_target": "Beta-2 adrenergic receptor and beta-3 adrenergic receptor (Homo sapiens) (UniProt P07550+P13945)", "assay": "Binding selectivity ratio for beta 3 over beta 2 AR (S beta3/beta2)", "type": "protein assay"}, "[7]": {"biological_target": "Adrenergic receptor beta; ADRB1 & ADRB3 (Homo sapiens) (UniProt P08588+P13945)", "sequence (P08588 whole entry, looked up)": "as the sequence (P08588 whole entry) above", "sequence (P13945 whole entry, looked up)": "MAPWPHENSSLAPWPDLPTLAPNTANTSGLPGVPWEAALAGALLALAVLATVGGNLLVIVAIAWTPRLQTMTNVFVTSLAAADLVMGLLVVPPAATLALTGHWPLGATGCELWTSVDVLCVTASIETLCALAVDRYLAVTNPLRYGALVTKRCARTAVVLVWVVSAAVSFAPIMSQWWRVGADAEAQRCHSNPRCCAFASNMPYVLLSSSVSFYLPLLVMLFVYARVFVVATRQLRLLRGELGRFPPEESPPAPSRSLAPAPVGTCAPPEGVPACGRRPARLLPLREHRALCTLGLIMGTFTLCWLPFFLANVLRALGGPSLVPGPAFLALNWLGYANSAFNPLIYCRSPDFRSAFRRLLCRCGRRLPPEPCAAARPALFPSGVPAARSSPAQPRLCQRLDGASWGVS", "assay": "Binding selectivity ratio for beta 3 over beta 1 AR (S beta3/beta1)", "type": "protein assay"}}}
{"smiles": "C[C@H](Cc1ccc(OCP(=O)(O)O)cc1)NC[C@H](O)c1cccc(Cl)c1", "values": [{"measurement": "EC50", "setting": "[1]", "value": 2640, "unit": "nM"}, {"measurement": "Activity", "setting": "[2]", "value": 0.53}, {"measurement": "Ki", "setting": "[3]", "value": 55.3, "unit": "µM"}, {"measurement": "Ki", "setting": "[4]", "value": 39700, "unit": "nM"}, {"measurement": "Ki", "setting": "[5]", "value": "> 100", "unit": "µM"}, {"measurement": "Selectivity", "setting": "[6]", "value": 0.72}, {"measurement": "Selectivity", "setting": "[7]", "value": "> 1.8"}]}
{"smiles": "C[C@H](Cc1ccc(OC(C(=O)O)C(=O)O)cc1)NC[C@H](O)c1cccc(Cl)c1", "values": [{"measurement": "Ki", "setting": "[3]", "value": 11.1, "unit": "µM"}, {"measurement": "Ki", "setting": "[4]", "value": 17100, "unit": "nM"}, {"measurement": "Ki", "setting": "[5]", "value": 243, "unit": "µM"}, {"measurement": "Selectivity", "setting": "[6]", "value": 1.5}, {"measurement": "Selectivity", "setting": "[7]", "value": 22}]}
{"smiles": "CC(C)OP(=O)(O)COc1ccc(C[C@@H](C)NC[C@H](O)c2cccc(Cl)c2)cc1", "values": [{"measurement": "EC50", "setting": "[1]", "value": 610, "unit": "nM"}, {"measurement": "Activity", "setting": "[2]", "value": 0.59}, {"measurement": "Ki", "setting": "[3]", "value": 18.8, "unit": "µM"}, {"measurement": "Ki", "setting": "[4]", "value": 42600, "unit": "nM"}, {"measurement": "Ki", "setting": "[5]", "value": 139, "unit": "µM"}, {"measurement": "Selectivity", "setting": "[6]", "value": 2.3}, {"measurement": "Selectivity", "setting": "[7]", "value": 7.4}]}
{"smiles": "C[C@H](Cc1ccc(OCC(=O)O)cc1)NC[C@H](O)c1cccc(Cl)c1", "values": [{"measurement": "Activity", "setting": "[2]", "value": 0.67}]}
{"smiles": "C[C@H](Cc1ccc(OCCO)cc1)NC[C@H](O)c1cccc(Cl)c1", "values": [{"measurement": "EC50", "setting": "[1]", "value": 750, "unit": "nM"}, {"measurement": "Activity", "setting": "[2]", "value": 0.77}, {"measurement": "Ki", "setting": "[3]", "value": 2.14, "unit": "µM"}, {"measurement": "Ki", "setting": "[4]", "value": 260, "unit": "nM"}, {"measurement": "Ki", "setting": "[5]", "value": 1.25, "unit": "µM"}, {"measurement": "Selectivity", "setting": "[6]", "value": 0.12}, {"measurement": "Selectivity", "setting": "[7]", "value": 0.58}]}
{"smiles": "C[C@H](Cc1ccc(OCS(=O)(=O)O)cc1)NC[C@H](O)c1cccc(Cl)c1", "values": [{"measurement": "EC50", "setting": "[1]", "value": 60, "unit": "nM"}, {"measurement": "Activity", "setting": "[2]", "value": 0.57}, {"measurement": "Ki", "setting": "[3]", "value": 0.806, "unit": "µM"}, {"measurement": "Ki", "setting": "[4]", "value": 2250, "unit": "nM"}, {"measurement": "Ki", "setting": "[5]", "value": 7.6, "unit": "µM"}, {"measurement": "Selectivity", "setting": "[6]", "value": 2.8}, {"measurement": "Selectivity", "setting": "[7]", "value": 9.4}]}
{"smiles": "COC(=O)COc1ccc(C[C@@H](C)NC[C@H](O)c2cccc(Cl)c2)cc1", "values": [{"measurement": "EC50", "setting": "[1]", "value": 420, "unit": "nM"}, {"measurement": "Activity", "setting": "[2]", "value": 0.69}, {"measurement": "Ki", "setting": "[3]", "value": 1.15, "unit": "µM"}, {"measurement": "Ki", "setting": "[4]", "value": 3.2, "unit": "nM"}, {"measurement": "Ki", "setting": "[5]", "value": 0.17, "unit": "µM"}, {"measurement": "Selectivity", "setting": "[6]", "value": 0.0028}, {"measurement": "Selectivity", "setting": "[7]", "value": 0.15}]}
{"smiles": "C[C@H](Cc1ccc(OCC(N)=O)cc1)NC[C@H](O)c1cccc(Cl)c1", "values": [{"measurement": "EC50", "setting": "[1]", "value": 1610, "unit": "nM"}, {"measurement": "Activity", "setting": "[2]", "value": 0.6}, {"measurement": "Ki", "setting": "[3]", "value": 3.7, "unit": "µM"}, {"measurement": "Ki", "setting": "[4]", "value": 170, "unit": "nM"}, {"measurement": "Ki", "setting": "[5]", "value": 0.59, "unit": "µM"}, {"measurement": "Selectivity", "setting": "[6]", "value": 0.046}, {"measurement": "Selectivity", "setting": "[7]", "value": 0.16}]}
{"smiles": "C[C@H](Cc1ccc(OCC(=O)NO)cc1)NC[C@H](O)c1cccc(Cl)c1", "values": [{"measurement": "EC50", "setting": "[1]", "value": 1610, "unit": "nM"}, {"measurement": "Activity", "setting": "[2]", "value": 0.66}, {"measurement": "Ki", "setting": "[3]", "value": 1.96, "unit": "µM"}, {"measurement": "Ki", "setting": "[4]", "value": 112, "unit": "nM"}, {"measurement": "Ki", "setting": "[5]", "value": 0.31, "unit": "µM"}, {"measurement": "Selectivity", "setting": "[6]", "value": 0.057}, {"measurement": "Selectivity", "setting": "[7]", "value": 0.16}]}
{"smiles": "C[C@H](Cc1ccc(OCP(C)(=O)O)cc1)NC[C@H](O)c1cccc(Cl)c1", "values": [{"measurement": "Ki", "setting": "[3]", "value": 19.9, "unit": "µM"}, {"measurement": "Ki", "setting": "[4]", "value": 73700, "unit": "nM"}, {"measurement": "Ki", "setting": "[5]", "value": 140, "unit": "µM"}, {"measurement": "Selectivity", "setting": "[6]", "value": 3.7}, {"measurement": "Selectivity", "setting": "[7]", "value": 7}]}
